Here are results for 30 compounds from patent publication US20240150345A1, “GCN2 MODULATING COMPOUNDS AND USES THEREOF” (HiberCell, Inc., priority 2021, published 2024).

The structures appear in SMILES notation.

T1 sequence (Q9P2K8 whole entry): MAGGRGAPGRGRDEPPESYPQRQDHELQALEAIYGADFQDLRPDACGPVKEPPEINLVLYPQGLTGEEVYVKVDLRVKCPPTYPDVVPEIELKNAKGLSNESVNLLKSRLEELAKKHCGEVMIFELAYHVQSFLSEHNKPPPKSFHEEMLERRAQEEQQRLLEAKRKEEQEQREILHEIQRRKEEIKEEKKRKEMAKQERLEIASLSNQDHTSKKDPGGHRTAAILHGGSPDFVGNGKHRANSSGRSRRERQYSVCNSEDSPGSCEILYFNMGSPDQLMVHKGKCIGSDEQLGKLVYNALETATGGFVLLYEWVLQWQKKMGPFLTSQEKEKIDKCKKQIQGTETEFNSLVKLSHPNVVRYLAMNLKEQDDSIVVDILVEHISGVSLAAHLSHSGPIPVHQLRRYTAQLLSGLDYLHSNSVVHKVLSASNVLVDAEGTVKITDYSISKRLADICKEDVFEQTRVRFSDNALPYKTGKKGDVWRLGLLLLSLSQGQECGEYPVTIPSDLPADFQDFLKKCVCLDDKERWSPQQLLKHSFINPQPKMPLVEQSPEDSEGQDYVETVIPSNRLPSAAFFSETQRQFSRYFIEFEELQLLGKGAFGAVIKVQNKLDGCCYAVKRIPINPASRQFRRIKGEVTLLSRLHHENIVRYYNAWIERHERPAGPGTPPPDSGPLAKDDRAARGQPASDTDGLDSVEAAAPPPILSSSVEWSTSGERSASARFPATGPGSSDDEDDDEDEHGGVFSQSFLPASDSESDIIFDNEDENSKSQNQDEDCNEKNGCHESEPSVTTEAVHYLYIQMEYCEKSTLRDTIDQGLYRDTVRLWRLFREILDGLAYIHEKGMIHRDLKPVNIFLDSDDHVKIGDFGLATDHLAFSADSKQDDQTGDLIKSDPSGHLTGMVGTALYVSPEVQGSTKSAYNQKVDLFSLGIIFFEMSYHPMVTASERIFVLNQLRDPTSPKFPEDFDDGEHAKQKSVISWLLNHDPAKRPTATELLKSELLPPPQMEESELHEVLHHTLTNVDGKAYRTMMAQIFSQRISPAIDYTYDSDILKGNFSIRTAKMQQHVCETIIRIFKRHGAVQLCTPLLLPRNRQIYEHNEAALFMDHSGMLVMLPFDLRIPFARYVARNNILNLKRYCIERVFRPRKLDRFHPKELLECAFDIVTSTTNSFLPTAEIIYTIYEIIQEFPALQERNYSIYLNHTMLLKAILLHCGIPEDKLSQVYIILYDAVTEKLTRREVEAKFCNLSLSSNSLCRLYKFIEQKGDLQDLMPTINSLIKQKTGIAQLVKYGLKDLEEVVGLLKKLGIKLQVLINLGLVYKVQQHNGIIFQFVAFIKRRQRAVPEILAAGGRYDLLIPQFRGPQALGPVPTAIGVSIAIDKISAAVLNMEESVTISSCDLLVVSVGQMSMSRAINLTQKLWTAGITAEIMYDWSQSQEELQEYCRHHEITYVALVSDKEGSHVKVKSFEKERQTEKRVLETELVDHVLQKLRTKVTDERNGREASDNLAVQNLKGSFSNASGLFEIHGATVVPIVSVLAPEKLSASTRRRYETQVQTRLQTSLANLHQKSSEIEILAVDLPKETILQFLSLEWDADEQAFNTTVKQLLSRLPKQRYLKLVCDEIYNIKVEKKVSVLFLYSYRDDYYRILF

This assay has as its target T1, GCN2 (Homo sapiens, UniProt Q9P2K8).
T1 construct: purchased Carma Biosciences (so in the source)
In words: TR-FRET biochemical assay for inhibition of GCN2 activity. To be noted: 2 nM GCN2, 100 nM GFP-eIF2α, 150 μM ATP, 1.5 hours at 25° C. An outline of the steps:
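Compounds (11-point, 3-fold series) were incubated with GCN2 (2 nM final), GFP-eIF2α (100 nM final) and 150 μM ATP with 2 mM DTT for 1.5 h at 25 °C. A 1 nM Tb-anti-P-eIF2α solution was then added for 2 h at 25 °C. TR-FRET was read (ex 340 nm, em 495/520 nm) and fitted with a 4-parameter sigmoidal curve.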
On the technique in general: Time-resolved FRET reads energy transfer from a long-lived donor to a nearby acceptor.
`COc1ncc(F)cc1S(=O)(=O)Nc1ccc(F)c(COc2cnc3[nH]ncc3c2C#N)c1F` [Compound 27, N-[3-[([4-cyano-1H-pyrazolo[3,4-b]pyridin-5-yl]oxy)methyl]-2,4-difluorophenyl]-5-fluoro-2-methoxypyridine-3-sulfonamide] showed an IC50 of under 50 nM. The result for `COc1ncc(Cl)cc1S(=O)(=O)Nc1ccc(F)c(COc2cnn3cncc3c2)c1F` [Compound 60, 5-chloro-N-(2,4-difluoro-3-((imidazo[1,5-b]pyridazin-3-yloxy)methyl)phenyl)-2-methoxypyridine-3-sulfonamide] reads under 50 nM; that for `COc1ncc(Cl)cc1S(=O)(=O)Nc1ccc(F)c(C(C)Nc2cnc3[nH]ncc3c2)c1F` (stereo not drawn) [Compound 29, 5-chloro-N-[2,4-difluoro-3-(1-[1H-pyrazolo[3,4-b]pyridin-5-ylamino]ethyl)phenyl]-2-methoxypyridine-3-sulfonamide], over 1000 nM; that for `COc1ncc(C#N)cc1S(=O)(=O)Nc1ccc(F)c(NCc2cnc3[nH]nc(C)c3c2)c1F` [Compound 49, 5-cyano-N-[2,4-difluoro-3-[([3-methyl-1H-pyrazolo[3,4-b]pyridin-5-yl]methyl)amino]phenyl]-2-methoxypyridine-3-sulfonamide], 50 to 500 nM. As for `COc1ncc(Cl)cc1S(=O)(=O)Nc1ccc(F)c(CCc2cnc3c(N)nccn23)c1F` [Compound 32, N-[3-(2-[8-aminoimidazo[1,2-a]pyrazin-3-yl]ethyl)-2,4-difluorophenyl]-5-chloro-2-methoxypyridine-3-sulfonamide], the IC50 is under 50 nM. The result for `COc1ncc(Cl)cc1S(=O)(=O)Nc1ccc(F)c(CCc2cnc3cn(C)nc3c2)c1F` [Compound 17, 5-chloro-N-[2,4-difluoro-3-(2-[2-methylpyrazolo[4,3-b]pyridin-6-yl]ethyl)phenyl]-2-methoxypyridine-3-sulfonamide] reads under 50 nM; that for `COc1ncc(F)cc1S(=O)(=O)Nc1ccc(F)c(CCc2cnc3cn(C(C)C)nc3c2)c1F` [Compound 37, N-[2,4-difluoro-3-(2-[2-isopropylpyrazolo[4,3-b]pyridin-6-yl]ethyl)phenyl]-5-fluoro-2-methoxypyridine-3-sulfonamide], 50 to 500 nM. The result for `Cc1ncc(F)cc1S(=O)(=O)Nc1ccc(F)c(COc2cnc3[nH]nc(C(C)C)c3c2)c1F` [Compound 54, N-[2,4-difluoro-3-[([3-isopropyl-1H-pyrazolo[3,4-b]pyridin-5-yl]oxy)methyl]phenyl]-5-fluoro-2-methylpyridine-3-sulfonamide] reads under 50 nM; that for `CNc1nccn2c(CCc3c(F)ccc(NS(=O)(=O)c4cc(Cl)cnc4OC)c3F)cnc12` [Compound 31, 5-chloro-N-(2,4-difluoro-3-(2-(8-(methylamino)imidazo[1,2-a]pyrazin-3-yl)ethyl)phenyl)-2-methoxypyridine-3-sulfonamide], under 50 nM; that for `COc1ncc(Cl)cc1S(=O)(=O)Nc1ncc(F)c(COc2cnc3[nH]nc(C)c3c2)c1F` [Compound 65, 5-chloro-N-[3,5-difluoro-4-[([3-methyl-1H-pyrazolo[3,4-b]pyridin-5-yl]oxy)methyl]pyridin-2-yl]-2-methoxypyridine-3-sulfonamide], under 50 nM. With `COc1ncc(F)cc1S(=O)(=O)Nc1ccc(F)c(COc2cnc3[nH]nc(C)c3c2)c1F` [Compound 2, N-[2,4-difluoro-3-[([3-methyl-1H-pyrazolo[3,4-b]pyridin-5-yl]oxy)methyl]phenyl]-5-fluoro-2-methoxypyridine-3-sulfonamide], the IC50 was under 50 nM. The result for `CCn1ncc2ncc(CCc3c(F)ccc(NS(=O)(=O)c4cc(Cl)cnc4OC)c3F)cc21` [Compound 33, 5-chloro-N-[3-(2-[1-ethylpyrazolo[4,3-b]pyridin-6-yl]ethyl)-2,4-difluorophenyl]-2-methoxypyridine-3-sulfonamide] reads under 50 nM; that for `COc1ncc(F)cc1S(=O)(=O)Nc1ccc(F)c(COc2cnc3[nH]ncc3c2C)c1F` [Compound 20, N-[2,4-difluoro-3-[([4-methyl-1H-pyrazolo[3,4-b]pyridin-5-yl]oxy)methyl]phenyl]-5-fluoro-2-methoxypyridine-3-sulfonamide], 50 to 500 nM. In turn, `COc1ncc(C#N)cc1S(=O)(=O)Nc1ccc(F)c(COc2cnc3[nH]ncc3c2)c1F` [Compound 26, 5-cyano-N-[2,4-difluoro-3-([1H-pyrazolo[3,4-b]pyridin-5-yloxy]methyl)phenyl]-2-methoxypyridine-3-sulfonamide] yielded an IC50 of under 50 nM. Under `COc1ncc(F)cc1S(=O)(=O)Nc1ccc(Cl)c(COc2cnc3[nH]nc(C)c3c2)c1F` [Compound 78, N-(4-chloro-2-fluoro-3-(((3-methyl-1H-pyrazolo[3,4-b]pyridin-5-yl)oxy)methyl)phenyl)-5-fluoro-2-methoxypyridine-3-sulfonamide] stands under 50 nM; under `COc1ncc(Cl)cc1S(=O)(=O)Nc1ccc(F)c(NCc2cnc3[nH]ncc3c2)c1F` [Compound 6, 5-chloro-N-[2,4-difluoro-3-([1H-pyrazolo[3,4-b]pyridin-5-ylmethyl]amino)phenyl]-2-methoxypyridine-3-sulfonamide], 50 to 500 nM. Under `COc1ncc(Cl)cc1S(=O)(=O)Nc1ccc(F)c(COc2cnc3[nH]ncc3c2OC)c1F` [Compound 24, 5-chloro-N-[2,4-difluoro-3-[([4-methoxy-1H-pyrazolo[3,4-b]pyridin-5-yl]oxy)methyl]phenyl]-2-methoxypyridine-3-sulfonamide] stands under 50 nM.

Compound `COc1ncc(F)cc1S(=O)(=O)Nc1ccc(F)c(COc2cnc3[nH]nc(C)c3c2)c1C#N` [Compound 62, N-[2-cyano-4-fluoro-3-[([3-methyl-1H-pyrazolo[3,4-b]pyridin-5-yl]oxy)methyl]phenyl]-5-fluoro-2-methoxypyridine-3-sulfonamide] returned an IC50 of 50 to 500 nM. The result for `CNC(=O)c1cc(CCc2c(F)ccc(NS(=O)(=O)c3cc(Cl)cnc3OC)c2F)[nH]n1` [Compound 8, 5-[2-[3-(5-chloro-2-methoxypyridine-3-sulfonamido)-2,6-difluorophenyl]ethyl]-N-methyl-1H-pyrazole-3-carboxamide] reads under 50 nM; that for `COc1ncc(F)cc1S(=O)(=O)Nc1ccc(F)c(COc2cnc3[nH]nc(C4CC4)c3c2)c1F` [Compound 70, N-(3-(((3-cyclopropyl-1H-pyrazolo[3,4-b]pyridin-5-yl)oxy)methyl)-2,4-difluorophenyl)-5-fluoro-2-methoxypyridine-3-sulfonamide], under 50 nM. `COc1ncc(Cl)cc1S(=O)(=O)Nc1ccc(F)c(COc2cnc3[nH]ncc3c2C#N)c1F` [Compound 28, 5-chloro-N-[3-[([4-cyano-1H-pyrazolo[3,4-b]pyridin-5-yl]oxy)methyl]-2,4-difluorophenyl]-2-methoxypyridine-3-sulfonamide]: the IC50 is under 50 nM. The result for `CCc1n[nH]c2ncc(OCc3c(F)ccc(NS(=O)(=O)c4cc(C#N)cnc4OC)c3F)cc12` [Compound 41, 5-cyano-N-[3-[([3-ethyl-1H-pyrazolo[3,4-b]pyridin-5-yl]oxy)methyl]-2,4-difluorophenyl]-2-methoxypyridine-3-sulfonamide] reads under 50 nM; that for `COc1ncc(F)cc1S(=O)(=O)Nc1ccc(F)c(COc2cnc3[nH]nc(C)c3c2C2CC2)c1F` [Compound 86, N-[3-[([4-cyclopropyl-3-methyl-1H-Pyrazolo[3,4-b]pyridin-5-yl]oxy)methyl]-2,4-difluorophenyl]-5-fluoro-2-methoxypyridine-3-sulfonamide], 50 to 500 nM. As for `COc1ncc(F)cc1S(=O)(=O)Nc1ccc(F)c(COc2cnc3[nH]ncc3c2OC)c1F` [Compound 23, N-[2,4-difluoro-3-[([4-methoxy-1H-pyrazolo[3,4-b]pyridin-5-yl]oxy)methyl]phenyl]-5-fluoro-2-methoxypyridine-3-sulfonamide], the IC50 lay in the range of 50 to 500 nM. `COc1ncc(F)cc1S(=O)(=O)Nc1ccc(F)c(COc2cnc3[nH]ncc3c2)c1F` [Compound 21, N-[2,4-difluoro-3-([1H-pyrazolo[3,4-b]pyridin-5-yloxy]methyl)phenyl]-5-fluoro-2-methoxypyridine-3-sulfonamide]: the IC50 is under 50 nM.

In turn, `COc1ncc(F)cc1S(=O)(=O)Nc1ccc(F)c(COc2cnc3[nH]nc(C#N)c3c2)c1F` [Compound 73, N-(3-(((3-cyano-1H-pyrazolo[3,4-b]pyridin-5-yl)oxy)methyl)-2,4-difluorophenyl)-5-fluoro-2-methoxypyridine-3-sulfonamide] displayed an IC50 of under 50 nM. In turn, `COc1ncc(Cl)cc1S(=O)(=O)Nc1ccc(F)c(CNc2cnc3[nH]ncc3c2)c1F` [Compound 3, 5-chloro-N-[2,4-difluoro-3-([1H-pyrazolo[3,4-b]pyridin-5-ylamino]methyl)phenyl]-2-methoxypyridine-3-sulfonamide] gave an IC50 of 50 to 500 nM. Under `COc1ncc(Cl)cc1S(=O)(=O)Nc1ccc(F)c(COc2cnc3[nH]nc(C(C)C)c3c2)c1F` [Compound 53, 5-chloro-N-[2,4-difluoro-3-[([3-isopropyl-1H-pyrazolo[3,4-b]pyridin-5-yl]oxy)methyl]phenyl]-2-methoxypyridine-3-sulfonamide] stands under 50 nM. Under `COc1ncc(F)cc1S(=O)(=O)Nc1ccc(F)c(COc2cnc3[nH]nc(C)c3c2Cc2ccccc2)c1F` [Compound 89, N-[3-[([4-benzyl-3-methyl-1H-pyrazolo[3,4-b]pyridin-5-yl]oxy)methyl]-2,4-difluorophenyl]-5-fluoro-2-methoxypyridine-3-sulfonamide] stands over 1000 nM.

`COc1ncc(F)cc1S(=O)(=O)Nc1ccc(F)c(COc2cnc3[nH]nc(C(F)(F)F)c3c2)c1F` [Compound 44, N-[2,4-difluoro-3-([[3-(trifluoromethyl)-1H-pyrazolo[3,4-b]pyridin-5-yl]oxy]methyl)phenyl]-5-fluoro-2-methoxypyridine-3-sulfonamide] gave an IC50 of under 50 nM.

What is called IC50 is the point on the concentration scale where inhibition reaches its midpoint. A lower IC50 goes with higher potency.
